{"source": "paper PMC8949771", "about": "“Gold(I)-Mediated Rapid Cyclization of Propargylated Peptides via Imine Formation” (Journal of the American Chemical Society, 2022)", "test": "Au(I)-mediated imine macrocyclisation: N-terminal amine adds (Markovnikov) to N-propargyl backbone amide alkyne; JohnPhosAu(MeCN)SbF6 2 equiv, Et4NBr 16 equiv; in situ NaBH4 10 equiv reduction 15 min for quantification", "settings": "DMF, 8.0 mM, 37.0 °C"}
{"smiles": "CC(C)C[C@@H]1NC(=O)CNC(C)CN(CC(N)=O)C(=O)CNC(=O)CNC(=O)CNC(=O)[C@H](C)NC(=O)[C@H](CCCNC(=N)N)NC(=O)[C@H](Cc2ccc(O)cc2)NC(=O)[C@H](CC(C)C)NC(=O)[C@H](Cc2ccccc2)NC(=O)CNC(=O)CNC(=O)[C@H](C)NC(=O)[C@H](CCCNC(=N)N)NC(=O)[C@H](Cc2ccc(O)cc2)NC(=O)[C@H](CC(C)C)NC1=O", "note": "(stereo partly drawn)", "values": [{"measurement": "ring closure, conversion by HPLC", "setting": "from C#CCN(CC(N)=O)C(=O)CNC(=O)CNC(=O)CNC(=O)[C@H](C)NC(=O)[C@H](CCCNC(=N)N)NC(=O)[C@H](Cc1ccc(O)cc1)NC(=O)[C@H](CC(C)C)NC(=O)[C@H](Cc1ccccc1)NC(=O)CNC(=O)CNC(=O)[C@H](C)NC(=O)[C@H](CCCNC(=N)N)NC(=O)[C@H](Cc1ccc(O)cc1)NC(=O)[C@H](CC(C)C)NC(=O)[C@H](CC(C)C)NC(=O)CN, 51-membered ring, 1.0 h", "value": 94, "unit": "%"}]}
{"smiles": "CC(C)C[C@@H]1NC(=O)CNC(C)CN(CC(N)=O)C(=O)CNC(=O)CNC(=O)CNC(=O)[C@H](C)NC(=O)[C@H](CCCNC(=N)N)NC(=O)[C@H](Cc2ccc(O)cc2)NC(=O)[C@H](CC(C)C)NC(=O)[C@H](Cc2ccccc2)NC(=O)[C@H](C)NC(=O)[C@H](CCCNC(=N)N)NC(=O)[C@H](Cc2ccc(O)cc2)NC1=O", "note": "(stereo partly drawn)", "values": [{"measurement": "ring closure, conversion by HPLC", "setting": "from C#CCN(CC(N)=O)C(=O)CNC(=O)CNC(=O)CNC(=O)[C@H](C)NC(=O)[C@H](CCCNC(=N)N)NC(=O)[C@H](Cc1ccc(O)cc1)NC(=O)[C@H](CC(C)C)NC(=O)[C@H](Cc1ccccc1)NC(=O)[C@H](C)NC(=O)[C@H](CCCNC(=N)N)NC(=O)[C@H](Cc1ccc(O)cc1)NC(=O)[C@H](CC(C)C)NC(=O)CN, 42-membered ring, 1.0 h", "value": 90, "unit": "%"}]}
{"smiles": "CC(C)C[C@@H]1NC(=O)CNC(=O)[C@H](CCCNC(=N)N)NC(C)CN(CC(N)=O)C(=O)CNC(=O)[C@H](C)NC(=O)[C@H](CCCNC(=N)N)NC(=O)[C@H](Cc2ccc(O)cc2)NC1=O", "note": "(stereo partly drawn) [H-Arg-Gly-Leu-Tyr-Arg-Ala-Gly-(N-propargyl)Gly-NH2]", "values": [{"measurement": "ring closure, conversion by HPLC", "setting": "from C#CCN(CC(N)=O)C(=O)CNC(=O)[C@H](C)NC(=O)[C@H](CCCNC(=N)N)NC(=O)[C@H](Cc1ccc(O)cc1)NC(=O)[C@H](CC(C)C)NC(=O)CNC(=O)[C@@H](N)CCCNC(=N)N, 24-membered ring, 1.0 h", "value": 83, "unit": "%"}]}
{"smiles": "CC(C)C[C@@H]1NC(=O)CNC(=O)[C@H](CC(N)=O)NC(C)CN(CC(N)=O)C(=O)CNC(=O)[C@H](C)NC(=O)[C@H](CCCNC(=N)N)NC(=O)[C@H](Cc2ccc(O)cc2)NC1=O", "note": "(stereo partly drawn) [H-Asn-Gly-Leu-Tyr-Arg-Ala-Gly-(N-propargyl)Gly-NH2]", "values": [{"measurement": "ring closure, conversion by HPLC", "setting": "from C#CCN(CC(N)=O)C(=O)CNC(=O)[C@H](C)NC(=O)[C@H](CCCNC(=N)N)NC(=O)[C@H](Cc1ccc(O)cc1)NC(=O)[C@H](CC(C)C)NC(=O)CNC(=O)[C@@H](N)CC(N)=O, 24-membered ring, 1.0 h", "value": 76, "unit": "%"}]}
{"smiles": "CC(C)C[C@@H]1NC(=O)CNC(=O)[C@H](CC(=O)O)NC(C)CN(CC(N)=O)C(=O)CNC(=O)[C@H](C)NC(=O)[C@H](CCCNC(=N)N)NC(=O)[C@H](Cc2ccc(O)cc2)NC1=O", "note": "(stereo partly drawn) [H-Asp-Gly-Leu-Tyr-Arg-Ala-Gly-(N-propargyl)Gly-NH2]", "values": [{"measurement": "ring closure, conversion by HPLC", "setting": "from C#CCN(CC(N)=O)C(=O)CNC(=O)[C@H](C)NC(=O)[C@H](CCCNC(=N)N)NC(=O)[C@H](Cc1ccc(O)cc1)NC(=O)[C@H](CC(C)C)NC(=O)CNC(=O)[C@@H](N)CC(=O)O, 24-membered ring, 1.0 h", "value": 76, "unit": "%"}]}
{"smiles": "CC(C)C[C@@H]1NC(=O)CNC(=O)[C@H](CS)NC(C)CN(CC(N)=O)C(=O)CNC(=O)[C@H](C)NC(=O)[C@H](CCCNC(=N)N)NC(=O)[C@H](Cc2ccc(O)cc2)NC1=O", "note": "(stereo partly drawn) [H-Cys-Gly-Leu-Tyr-Arg-Ala-Gly-(N-propargyl)Gly-NH2]", "values": [{"measurement": "ring closure, conversion by HPLC", "setting": "from C#CCN(CC(N)=O)C(=O)CNC(=O)[C@H](C)NC(=O)[C@H](CCCNC(=N)N)NC(=O)[C@H](Cc1ccc(O)cc1)NC(=O)[C@H](CC(C)C)NC(=O)CNC(=O)[C@@H](N)CS, 24-membered ring, 1.0 h", "value": 76, "unit": "%"}]}
{"smiles": "CC(C)C[C@@H]1NC(=O)CNC(=O)[C@H](CCC(=O)O)NC(C)CN(CC(N)=O)C(=O)CNC(=O)[C@H](C)NC(=O)[C@H](CCCNC(=N)N)NC(=O)[C@H](Cc2ccc(O)cc2)NC1=O", "note": "(stereo partly drawn) [H-Glu-Gly-Leu-Tyr-Arg-Ala-Gly-(N-propargyl)Gly-NH2]", "values": [{"measurement": "ring closure, conversion by HPLC", "setting": "from C#CCN(CC(N)=O)C(=O)CNC(=O)[C@H](C)NC(=O)[C@H](CCCNC(=N)N)NC(=O)[C@H](Cc1ccc(O)cc1)NC(=O)[C@H](CC(C)C)NC(=O)CNC(=O)[C@@H](N)CCC(=O)O, 24-membered ring, 1.0 h", "value": 89, "unit": "%"}]}
{"smiles": "CC(C)C[C@@H]1NC(=O)CNC(=O)CNC(=O)CNC(C)CN(CC(N)=O)C(=O)CNC(=O)[C@H](C)NC(=O)[C@H](CCCNC(=N)N)NC(=O)[C@H](Cc2ccc(O)cc2)NC1=O", "note": "(stereo partly drawn) [H-Gly-Gly-Gly-Leu-Tyr-Arg-Ala-Gly-(N-propargyl)Gly-NH2]", "values": [{"measurement": "ring closure, conversion by HPLC", "setting": "from C#CCN(CC(N)=O)C(=O)CNC(=O)[C@H](C)NC(=O)[C@H](CCCNC(=N)N)NC(=O)[C@H](Cc1ccc(O)cc1)NC(=O)[C@H](CC(C)C)NC(=O)CNC(=O)CNC(=O)CN, 27-membered ring, 0.5 h", "value": 91, "unit": "%"}]}
{"smiles": "CC(C)C[C@@H]1NC(=O)CNC(C)CN(CC(N)=O)C(=O)CNC(=O)[C@H](C)NC(=O)[C@H](Cc2ccc(O)cc2)NC1=O", "note": "(stereo partly drawn) [H-Gly-Leu-Tyr-Ala-Gly-(N-propargyl)Gly-NH2]", "values": [{"measurement": "ring closure, conversion by HPLC", "setting": "from C#CCN(CC(N)=O)C(=O)CNC(=O)[C@H](C)NC(=O)[C@H](Cc1ccc(O)cc1)NC(=O)[C@H](CC(C)C)NC(=O)CN, 18-membered ring, 0.5 h", "value": 79, "unit": "%"}]}
{"smiles": "CC(C)C[C@@H]1NC(=O)CNC(C)CN(CC(N)=O)C(=O)CNC(=O)[C@H](C)NC(=O)[C@H](CCCNC(=N)N)NC(=O)[C@H](Cc2ccc(O)cc2)NC1=O", "note": "(stereo partly drawn) [H-Gly-Leu-Tyr-Arg-Ala-Gly-(N-propargyl)Gly-NH2]", "values": [{"measurement": "ring closure, conversion by HPLC", "setting": "from C#CCN(CC(N)=O)C(=O)CNC(=O)[C@H](C)NC(=O)[C@H](CCCNC(=N)N)NC(=O)[C@H](Cc1ccc(O)cc1)NC(=O)[C@H](CC(C)C)NC(=O)CN, 21-membered ring, 0.5 h", "value": 78, "unit": "%"}]}
{"smiles": "CC(=O)NCSC[C@@H]1NC(=O)[C@H](Cc2ccc(O)cc2)NC(=O)[C@H](CC(C)C)NC(=O)CNC(C)CN(CC(N)=O)C(=O)CNC(=O)[C@H](C)NC1=O", "note": "(stereo partly drawn) [H-Gly-Leu-Tyr-Cys(Acm)-Ala-Gly-(N-propargyl)Gly-NH2]", "values": [{"measurement": "ring closure, conversion by HPLC", "setting": "from C#CCN(CC(N)=O)C(=O)CNC(=O)[C@H](C)NC(=O)[C@H](CSCNC(C)=O)NC(=O)[C@H](Cc1ccc(O)cc1)NC(=O)[C@H](CC(C)C)NC(=O)CN, 21-membered ring, 0.5 h", "value": 82, "unit": "%"}]}
{"smiles": "CC(C)C[C@@H]1NC(=O)CNC(C)CN(CC(N)=O)C(=O)CNC(=O)[C@H](C)NC(=O)[C@H](CS)NC(=O)[C@H](Cc2ccc(O)cc2)NC1=O", "note": "(stereo partly drawn) [H-Gly-Leu-Tyr-Cys-Ala-Gly-(N-propargyl)Gly-NH2]", "values": [{"measurement": "ring closure, conversion by HPLC", "setting": "from C#CCN(CC(N)=O)C(=O)CNC(=O)[C@H](C)NC(=O)[C@H](CS)NC(=O)[C@H](Cc1ccc(O)cc1)NC(=O)[C@H](CC(C)C)NC(=O)CN, 21-membered ring, 0.5 h", "value": 75, "unit": "%"}]}
